6 molecules from patent EP0252983B1, “SALTS OF N-(VINYLOXIETHYL)DITHIOCARBAMIC ACID, METHOD OF OBTAINING THEREOF AND […] ON THEM” (priority 1985, dated 1987) can be followed below.

In one data set the test system is Psoroptes cuniculi. The data set is described as follows: Acaricidal activity on isolated mites. It is filed as in vivo. The protocol:
Die akarizide Aktivität der Stoffe wird an isolierten Milben Psoroptes cuniculi als Erreger der Psoroptesräude bei Kaninchen geprüft. Von frischen Verkrustungen von Kaninchen mit Psoroptesräude, werden zu diesem Zweck 50 Milbenexemplare (Larven, Nymphen, Imago) gewählt und in Petri-Schalen auf ein Filterpapierblatt übertragen. Dann bringt man auf Milben und die ganze Blattoberfläche 1,5 ml zu prüfende wäßrige Stofflösung in destilliertem Wasser auf. Die Schale wird mit Deckel verschlossen und in einen Thermostat bei 30 °C und Feuchtegehalt von 90 % angeordnet. Der Wirkstoff wird als wäßrige Lösung mit einer zwischen 0,0039 und 4 % liegenden Konzentration genommen. Als Vergleichsmuster dient gleichzeitig eine wäßrige Lösung von Chlorophos. Milben werden im Kontrollversuch (Kontrolle auf Lebensfähigkeit)mit 1,5 ml physiologischer Lösung behandelt und in einen anderen Thermostat unter gleichen Temperatur- und Feuchtigkeitsbedingungen aufgestellt.
Nach 1, 2, 4, 6 Stunden und alle 24 Stunden betrachtet man die Milben im Mikroskop und zählt die toten Milben. Aufgrund der Milbenvernichtung durch einen 24-stündigen Kontakt mit dem Wirkstoff ermittelt man die LK-50 Werte. Die Versuche werden 5mal wiederholt. Arithmetische Mittelwerte gibt Tabelle 14 an.

The next data set deals with Larven von Fichtenböcken. The data set is described as follows: Insecticidal activity, topical application to larvae. The data set is classed as in vivo, Fichtenböcke. As to conditions: 10%ige Lösung. An excerpt:
Die hohe insektizide Aktivität von Kalium-N-(vinyloxyathyl)dithiocarbamat und Zink-bis-(N-vinyloxyathyl- dithiocarbamat) wurde in Versuchen an Larven von Fichtenböcken nachgewiesen. Geprüft wurden die 10%igen wäßrigen (oder alkoholischen) Lösungen, welche auf die Kopfbrust von Larven aufgebracht wurden. In Versuchen standen je 20 Larven zur Verfügung. Die Versuche wurden dreimal wiederholt. Die Mortalität wurde nach 1, 24 und 48 Stunden ermittelt. Die insektizide Aktivität der erfindungsgemäßen Stoffe ist bedeutend höher als die von Chlorophos.
Die Prüfungen auf insektizide Aktivität werden an Larven von Fichtenböcken durchgeführt. Geprüft werden eine 10%ige wäßrige Lösung von Kalium-N-(vinyloxyäthyl)dithiocarbamat und eine 10%ige alkoholische Lösung von Zink-bis-N-(vinyloxyathyldithiocarbamat). In jedem Versuch stehen je 20 Larven zur Verfügung. Die Mortalität wird nach 1, 24 und 48 Stunden ermittelt. Die zu prüfenden Lösungen werden auf die Kopfbrust von Larven aufgebracht.

For data set [1], the system named is Rhizoctonia solani. The data set is described as follows: Soil fungicide test (fungal discs in treated soil). It is filed as cell-based. As to conditions: 160 mg/kg Boden. The arrangement: key: Das Vorhandensein (+); das Fehlen (-) des wachsenden Myzels um die Scheibe herum. As for the experimental part:
(§1) Eine 50 g schwere Bodenprobe bringt man in ein Glasgefäß ein, sterilisiert innerhalb von 2 Stunden unter einem Druck von 2 atm, gibt dann dem Boden das Präparat als wäßrige Lösung ausgehend von 160 mg/kg zu, wonach in den Boden Scheiben mit Kulturen folgender Pilze Fusarium oxysporum, Verticillium dahliae, Rhizoctonia solani, Pythium ultimum untergebracht werden.
(§2) Nach 24 und 48 Stunden werden die Scheiben in fließendem Wasser, dann in sterilem Wasser gewaschen, auf sterilem Filterpapier getrocknet und auf eine reine Agarplatte gelegt. Das Vorhandensein (+) oder das Fehlen (-) des wachsenden Myzels um die Scheibe herum wies auf die Wirksamkeit des Präparats. Als Vergleichsmuster diente dabei Karbathion. Die Prüfergebnisse sind in der Tabelle 5 dargestellt.

Data set [2] relates to Verticillium dahliae. Put plainly: Soil fungicide test (fungal discs in treated soil). The arrangement: key: Das Vorhandensein (+); das Fehlen (-) des wachsenden Myzels um die Scheibe herum. As to conditions: 160 mg/kg Boden. The data set is classed as cell-based. As for the experimental part:
as §1, §2

A further data set relates to Fusarium oxysporum. Put plainly: Soil fungicide test (fungal discs in treated soil). The data set is classed as cell-based. The arrangement: key: Das Vorhandensein (+); das Fehlen (-) des wachsenden Myzels um die Scheibe herum. As to conditions: 160 mg/kg Boden. The protocol: as §1, §2
For a further data set, the system named is Pythium ultimum. The data set is described as follows: Soil fungicide test (fungal discs in treated soil). Set-up: key: Das Vorhandensein (+); das Fehlen (-) des wachsenden Myzels um die Scheibe herum. It is filed as cell-based. Conditions: 160 mg/kg Boden. As for the experimental part: as §1, §2
The next data set deals with Wurzelfäule von Gurken. Put plainly: Cucumber root rot test in treated non-sterile soil. It is filed as in vivo. Conditions: 200 kg/ha Wirkstoff. An excerpt: Man nimmt 100 g unsterilen Boden, enthaltend 1 Teil Humus, 1 Teil Rasenboden, 1 Teil Sand, gibt darin ein Präparat, das Zink-bis-(N-vinyloxyäthyldithiocarbamat) ausgehend von 200 kg/ha Wirkstoff enthält.
Das Präparat wird wie folgt hergestellt: Einer gesättigten Lösung des genannten Salzes in Azeton gibt man einige Tropfen Emulgiermittel (hydroxyäthylierte Alkylphenole) zu und verdünnt mit Wasser. Innerhalb von 7 bis 8 Tagen begießt man dann bodenhaltige Gefäße mit Wasser, bis der Boden in einen Zustand gebracht wird, der 60% der vollen Wasseraufnahmekapazität des Feldes beträgt. Nach dieser Zeit erfolgt die Aussaat von Gurkensamen, eingequollen im voraus in einer 0,1%igen KMn04-Lösung innerhalb von 2 Stunden. In jedes Gefäß werden je 10 Samen auf eine Tiefe von 1 bis 1,5 cm gesät. Nach 7 bis 9 Tagen berücksichtigt man die Keimungsfähigkeit von Samen, dann bestimmt man nach 3 Tagen den Befallumfang von Pflanzen durch Wurzelfäule, hervorgerufen durch einen Erregerkomplex. Die Versuche werden viermal wiederholt, als Vergleichsmuster dient Milon. Die Prüfergebnisse zeigt Tabelle 9.

The next data set has as its system Paecilomyces varioti. Put plainly: Mycelial growth inhibition on agar (contact activity). The data set is classed as cell-based. Conditions: Paecilomyces, 120 h, Wirkstoffkonzentration 0,003 %. The protocol:
(§3) Die Prüfungen werden nach dem Verfahren zur Ermittlung der Kontaktaktivität durchgeführt. Man verwendet das in Wasser gelöste Kalium-N-(vinyloxyäthyl)dithiocarbamat, führt es in ein Nährmedium ein und vergießt auf Petri-Schalen. Nach 24 Stunden wird mit Pilzmyzelium nach einem Stichverfahren geimpft. Dann temperiert man die Schalen innerhalb von 5 Tagen bei einer zwischen 24 und 26 °C liegenden Temperatur und mißt den Durchmesser von Pilzkolonien, ermittelt den Prozentsatz der Hemmung des Myzelwachstums (S) ausgehend von Angaben am 5. Tag nach der Abbott-Formel [drawing 13] worin dc für den Durchmesser der Pilzkolonien, de für den Durchmesser von Pilzkolonien in der Schale stehen, wo ein die zu prüfenden Stoffe enthaltendes Medium vorhanden ist. Dieses Verfahren zur Ermittlung der mikrobiologischen Aktivität ist in anderen Beispielen verwendet.

The test system of the next data set is Penicillium funiculosum. The data set is described as above. The data set is classed as cell-based. Conditions: Talaromyces funiculosus, 120 h, Wirkstoffkonzentration 0,003 %. The protocol:
as §3

The test system of the next data set is Stereum hirsutum. The description is as above. It is filed as cell-based. As to conditions: Stereum hirsutum, 120 h, Wirkstoffkonzentration 0,003 %. The protocol:
as §3

Another data set deals with Aspergillus niger. The data set is described as above. It is filed as cell-based.
The next data set has as its system Chaetomium globosum. The description is as above. It is filed as cell-based. As to conditions: Chaetomium globosum, 120 h; Wirkstoffkonzentration 0,003 %; Tabelle 3; read-out: Mycelhemmung, in %. As for the experimental part: as §3
Another data set deals with Sphaeropsis malorum. Described as above. It is filed as cell-based. As to conditions: 120 h; Wirkstoffkonzentration 0,003 %; Würzeagar; Tabelle 7; read-out: Myzelhemmung in %. As for the experimental part:
as §3
(§4) Als Nährmedium dient Würzeagar.

The subject of data set [3] is Rhizoctonia solani. The description is as above. It is filed as cell-based. As to conditions: Rhizoctonia solani, 120 h; Wirkstoffkonzentration 0,003 %; Würzeagar; Tabelle 7; read-out: Myzelhemmung in %. The protocol: as §3
Die fungizide Aktivität von Zink-bis-(N-vinyloxyäthyldithiocarbamat) gegen reine Kulturen von Pilzen Fusarium moniliforme, Fusarium sambucinum, Aspergillus niger, Rhizoctonia solani, Cladosporium resinae, Cladosporium cladosporioides, Acremonium cowum, Acremonium charticola, Penicillium chrysogenum, Penicillium charlesii Smith, Penicillium funiculosum, Geotrichum candidum Link, Walrotiela subiculesa, Oidium sp., Paecilomyces varioti, Stereum hirsutum wird gemäß Beispiel 8 untersucht.
as §4

The subject of another data set is Venturia inaegualis. The data set is described as above. It is filed as cell-based. As to conditions: 120 h, Kartoffel-Glukose-Nährmedium, read-out: Myzelhemmung in %. As for the experimental part:
as §3
(§5) Tabelle 2 zeigt die Angaben für die fungizide Aktivität von Kalium-N-(vinyloxyäthyl)dithiocarbamat und bekannten wirksamen Fungiziden Poly arbazin und TMTD. Der zu prüfende Stoff wurde im Laufe der Versuche in Wasser aufgelöst, und die Kulturen wurden auf einem Kartoffel-Glukose-Nährmedium gezüchtet.

A further data set has as its system Botrytis cinerea. Described as above. As to conditions: 120 h, Kartoffel-Glukose-Nährmedium, read-out: Myzelhemmung in %. It is filed as cell-based. As for the experimental part: as §3, §5
In data set [4] the test system is Verticillium dahliae. The description is as above. It is filed as cell-based. Conditions: 120 h, Kartoffel-Glukose-Nährmedium, read-out: Myzelhemmung in %. The protocol:
as §3, §5

In another data set the test system is Fusarium sambucinum. Described as above. The data set is classed as cell-based. As for the experimental part:
as §3, §5

In the next data set the test system is Fusarium moniliforme. The data set is described as above. It is filed as cell-based. As for the experimental part: as §3, §5
The mark [5] stands for this setting: Würzeagar, Tabelle 8, read-out: Myzelhemmung in %.
Where [6] appears, read: Tabelle 3, read-out: Mycelhemmung, in %.
Setting [7] is: Wirkstoffkonzentration 0,003 %, Würzeagar, Tabelle 7.

Like-named read-outs stand apart in the source and are kept apart here.

Turning to `COP(=O)(OC)C(O)C(Cl)(Cl)Cl` (stereo not drawn) [Chlorophos, O,O-Dimethyl-(1-oxy-2,2,2-trichloräthyl)phosphonat, reference compound], the LK-50 % with Psoroptes cuniculi (24-stündiger Kontakt mit dem Wirkstoff) is 0,8%. Moreover, the “Vernichtung von 100 % der Milben nach Stunden” value turned out to be 48 Stunden in the data set on Psoroptes cuniculi (Konzentration 0,5 bis 1,0 %) and 72 Stunden with Psoroptes cuniculi (Konzentration 0,25 %). The “Mortalität von Larven der Fichtenböcke” value in the data set on Larven von Fichtenböcken (Wirkungsdauer 1 Stunde) is 0%; in the data set with Larven von Fichtenböcken (Wirkungsdauer 24 Stunden), 20%; in the data set with Larven von Fichtenböcken (Wirkungsdauer 48 Stunden), 57%.

In the case of `CNC(=S)[S-].[Na+]` [Karbathion, reference compound], the “wachsendes Myzel um die Scheibe” value in the data set on Rhizoctonia solani [1] (Haltedauer 24 Stunden), in the data set on Rhizoctonia solani [1] (Haltedauer 48 Stunden), in the data set on Verticillium dahliae [2] (Haltedauer 24 Stunden), in the data set with Verticillium dahliae [2] (Haltedauer 48 Stunden), in the data set with Fusarium oxysporum (Haltedauer 24 Stunden) and in the data set on Fusarium oxysporum (Haltedauer 48 Stunden) was “-” in each case. Besides, the “wachsendes Myzel um die Scheibe” value with Pythium ultimum (Haltedauer 24 Stunden) and with Pythium ultimum (Haltedauer 48 Stunden) was “-” each time.

`CN1CSC(=S)N(C)C1` [Milon, 3,5-Dimethyltetrahydro-1,3,5-thiadizin-1-thion-2, reference compound]: the Keimungshäufigkeit in % in the data set with Wurzelfäule von Gurken (Gurkensamen) is 70,3%. The “Entwicklung von Krankheiten in %” value with Wurzelfäule von Gurken (Wurzelfäule von Gurken) is listed as 0%.

With `Oc1c(Cl)c(Cl)c(Cl)c(Cl)c1Cl` [Pentachlorphenol, reference compound], the inhibition of growth at 0.003 % in the data set with Paecilomyces varioti (setting [5]) turned out to be 100%; with Penicillium funiculosum (setting [5]), 100%; in the data set with Stereum hirsutum (setting [5]) it was 100%; in the data set with Aspergillus niger (Aspergillus niger, 120 h, Wirkstoffkonzentration 0,003 %, Würzeagar, Tabelle 8, read-out: Myzelhemmung in %), 100%.

Turning to `O=C(Nc1ccccc1)c1ccccc1O` [Salizylanilid, reference compound], the inhibition of growth at 0.003 % with Paecilomyces varioti (setting [6]) was 100%; with Penicillium funiculosum (setting [6]), 100%; with Chaetomium globosum it was 100%; with Stereum hirsutum (setting [6]), 100%; with Aspergillus niger (Aspergillus niger, 120 h, Wirkstoffkonzentration 0,003 %, Tabelle 3, read-out: Mycelhemmung, in %) it was 100%.

Regarding `CN(C)C(=S)SSC(=S)N(C)C` [TMTD, Tetramethylthiuramdisulfid, reference compound], the inhibition of growth at 0.003 % in the data set with Sphaeropsis malorum was found to be 100%; in the data set with Aspergillus niger (Aspergillus niger, 120 h, Wirkstoffkonzentration 0,003 %, Kartoffel-Glukose-Nährmedium, read-out: Myzelhemmung in %), 100%; with Rhizoctonia solani [3], 100%; in the data set with Venturia inaegualis (Wirkstoffkonzentration 0,003 %), 100%; with Botrytis cinerea (Wirkstoffkonzentration 0,003 %), 100%; in the data set on Verticillium dahliae [4] (Wirkstoffkonzentration 0,003 %) it was 100%. Moreover, the inhibition of growth at 0.003 % was found to be 100% with Fusarium sambucinum (Fusarium sambucinum, 120 h, Wirkstoffkonzentration 0,003 %, Kartoffel-Glukose-Nährmedium, read-out: Myzelhemmung in %) and 100% with Fusarium moniliforme (Fusarium verticillioides, 120 h, Wirkstoffkonzentration 0,003 %, Kartoffel-Glukose-Nährmedium, read-out: Myzelhemmung in %). The inhibition of growth at 0.01 % in the data set on Aspergillus niger (Aspergillus niger, 120 h, Wirkstoffkonzentration 0,01 %, Kartoffel-Glukose-Nährmedium, read-out: Myzelhemmung in %) was found to be 100%; with Venturia inaegualis (Wirkstoffkonzentration 0,01 %), 100%; in the data set with Botrytis cinerea (Wirkstoffkonzentration 0,01 %) it was 100%; in the data set with Verticillium dahliae [4] (Wirkstoffkonzentration 0,01 %) it was 100%; with Fusarium sambucinum (Fusarium sambucinum, 120 h, Wirkstoffkonzentration 0,01 %, Kartoffel-Glukose-Nährmedium, read-out: Myzelhemmung in %) it was 100%; with Fusarium moniliforme (Fusarium verticillioides, 120 h, Wirkstoffkonzentration 0,01 %, Kartoffel-Glukose-Nährmedium, read-out: Myzelhemmung in %), 100%. Further, the Myzelhemmung in % in the data set with Aspergillus niger (setting [7]), in the data set on Fusarium sambucinum (setting [7]) and with Fusarium moniliforme (setting [7]) was 100% in each case.
